Data reported in patent US8143446B2, “Substituted acrylamide derivative and pharmaceutical composition comprising the same” (Daiichi Sankyo Company, Limited, priority 2005, dated 2012).

Assays:
[1] = tested on: adjuvant arthritis model rats; assay: Evaluation of bone density decrease-suppressing activity and anti-arthritic activity (adjuvant arthritis model); type: in vivo, rat; settings: oral 10 mg/kg once a day for 7 days from day 14 after adjuvant; for Paw edema-suppressing rate (%): hind paw volume on day 21, 8-week old female Lewis rats; for Bone density decrease-suppressing rate (%): thighbone bone density on day 21, 8-week old female Lewis rats
Description: In rheumatoid arthritis, not only swelling and pain caused by arthritis but also systemic bone mass decrease and articular destruction caused by a significant increase in bone resorption are observed.
The test was conducted using 8-week old female Lewis rats. Mycobacterium butyricum cells which were killed by heat were ground in an agate mortar, suspended in liquid paraffin sterilized by dry heat to a concentration of 2 mg/mL, and treated with ultrasound to prepare an adjuvant. Under ether anesthesia, rats in a control group other than a normal control group and rats in a test compound administration group were intradermally injected with 0.05 mL of this adjuvant each time (0.1 mL/rat in total) at two portions of the base of the tail. Starting from 14 days after the injection of the adjuvant, each rat was orally administered with 5 mL/kg of a test compound suspended in 0.5% MC once a day for 7 days. Similarly, the rats of the control group were administered with 0.5% MC alone. On the 21st day after the adjuvant injection, hind paw volumes were measured by using a paw edema volume determining device (MUROMACHI KIKAI, TK-101CMP). Then, the thighbone was biopsied. The thighbone was, after removing soft tissues, sufficiently fixed, dehydrated, and dried using ethanol. The bone density of the thighbone was measured with a bone density analyzer (Aloka, DOS-600 EX-IIIR). Five rats were used for each test group.
The evaluation was conducted by comparison tests with the normal control group and the control group and based on the bone density decrease-suppressing rate (%) and the paw edema-suppressing rate (%) calculated according to the following formulae: Bone density decrease-suppressing rate (%)=(1−([thighbone bone density in normal control group]−[thighbone bone density in test compound administration group])/([thighbone bone density in normal control group]−[thighbone bone density in control group]))×100 Paw edema-suppressing rate (%)=(1−([paw volume of test compound administration group]−[paw volume in normal control group])/([paw volume in control group]−[paw volume in normal control group]))×100

[2] = tested on: 4-week old male Wistar rats; assay: Evaluation of blood calcium concentration-decreasing activity (serum calcium after oral dosing of immature rats); type: in vivo, rat; settings: serum 6 hours after administration, fasted 4-week old male Wistar rats, vs normal control group
Description: The blood calcium concentration in a living body is strictly controlled and constantly maintained by intestinal absorption and urinary excretion and release (bone resorption) and adhesion (bone formation) in bone tissues. […] The bone resorption-suppressing activity of compounds according to the present invention was evaluated by administering the compounds to immature rats and observing decreases in blood calcium concentration as an index of the activity.
The test was conducted using 4-week old male Wistar rats fasted for 12 to 24 hours. Each compound to be tested was suspended in 0.5% methyl cellulose (MC). The suspension was orally administered to the rats at a dose of 5 mL/kg. Similarly, rats of a normal control group were administered with 0.5% MC alone. Then, blood was drawn from rat jugular vein under ether anesthesia 6 hours after the administration of each test compound or 0.5% MC. The blood was immediately centrifuged (10000 rpm, 5 minutes) at room temperature to separate serum. The calcium concentration of each serum was measured by an autoanalyzer (JEOL, JCA-BM2250). Five rats were used for each test group.
The evaluation was conducted by a comparative test with the normal control group and based on the serum calcium concentration-decreasing rate (%) calculated according to the following formula:
Serum calcium concentration-decreasing rate (%)=(([serum calcium concentration in normal control group] - [serum calcium concentration in test compound administration group])/[serum calcium concentration in normal control group])×100.

Row | Compound | melting point [°C] | Paw edema-suppressing rate (%) [1] [%] | Bone density decrease-suppressing rate (%) [1] [%] | Serum calcium concentration-decreasing rate (%) ([2]; administration dose 10 mg/kg) | Serum calcium concentration-decreasing rate (%) ([2]; administration dose 20 mg/kg)
1 | CC(C)Oc1ccc(/C=C(\NC(=O)c2ccc(OCCc3ccc(N(C)C)cc3)cc2)C(=O)NCCO)cc1.Cl | 103 to 105 |  |  |  | 
2 | CC(C)COc1ccc(C(=O)N/C(=C\c2ccc3ccccc3c2)C(=O)NCCO)cc1 [Example 2-6, N-[(Z)-1-{[(2-hydroxyethyl)amino]carbonyl}-2-(2-naphthyl)vinyl]-4-isobutoxybenzamide] | 150 to 152 |  |  |  | 
3 | CC(C)COc1ccc(C(=O)N/C(=C\c2ccc(C(F)(F)F)nc2)C(=O)NCCO)cc1 [Example 2-16, N-{(Z)-1-{[(2-hydroxyethyl)amino]carbonyl}-2-[6-(trifluoromethyl)pyridin-3-yl]vinyl}-4-isobutoxybenzamide] | 184 to 187 |  |  |  | 
4 | CC(C)COc1ccc(C(=O)N/C(=C\c2ccc(OC(C)C)cc2)C(=O)NCCO)cn1 [Example 2-19, N-[(Z)-1-{[(2-hydroxyethyl)amino]carbonyl}-2-(4-isopropoxyphenyl)vinyl]-6-isobutoxynicotinamide] | 74 to 76 |  |  |  | 
5 | CC(C)COc1ccc(C(=O)N/C(=C\c2ccc(OC(C)C)cc2)C(=O)NCCO)c(F)c1 [Example 2-21, 2-fluoro-N-[(Z)-1-{[(2-hydroxyethyl)amino]carbonyl}-2-(4-isopropoxyphenyl)vinyl]-4-isobutoxybenzamide] | 51 to 54 |  |  |  | 
6 | COc1ccc(CCOc2ccc(C(=O)N/C(=C\c3ccc(OC(F)(F)F)cc3)C(=O)NCCO)cc2)cc1 [Example 3, N-{(Z)-1-{[(2-Hydroxyethyl)amino]carbonyl}-2-[4-(trifluoromethoxy)phenyl]vinyl}-4-[2-(4-methoxyphenyl)ethoxy]benzamide] |  | 22 | 57 |  | 
7 | COc1ccc(CCOc2ccc(C(=O)N/C(=C\c3ccc(C4CC4)cc3)C(=O)NCCO)cc2)cc1 [Example 5, N-((Z)-2-(4-Cyclopropylphenyl)-1-{[(2-hydroxyethyl)amino]carbonyl}vinyl)-4-[2-(4-methoxyphenyl)ethoxy]benzamide] |  | 25 | 54 | 27.6 | 
8 | O=C(NCCO)/C(=C/c1ccc(C2CC2)cc1)NC(=O)c1ccc(OCCC2CC2)cc1 [Example 9, 4-(2-Cyclopropylethoxy)-N-((Z)-2-(4-cyclopropylphenyl)-1-{[(2-hydroxyethyl)amino]carbonyl}vinyl)benzamide] |  | 11 | 37 |  | 29.3
9 | O=C(NCCO)/C(=C/c1ccc(OC(F)(F)F)cc1)NC(=O)c1ccc(OCCC2CC2)cc1 [Example 11, 4-(2-Cyclopropylethoxy)-N-{(Z)-1-{[(2-hydroxyethyl)amino]carbonyl}-2-[4-(trifluoromethoxy)phenyl]vinyl}benzamide] |  | 29 | 40 |  | 30.6
10 | O=C(NCCO)/C(=C/c1ccc(Cl)cc1)NC(=O)c1ccc(OCCC2CC2)cc1 [Example 14, N-((Z)-2-(4-Chlorophenyl)-1-{[(2-hydroxyethyl)amino]carbonyl}vinyl)-4-(2-cyclopropylethoxy)benzamide] |  | 12 | 86 | 33.2 | 
11 | O=C(NCCO)/C(=C/c1ccc(OC2CC2)cc1)NC(=O)c1ccc(OCCC2CC2)cc1 [Example 16, 4-(2-Cyclopropylethoxy)-N-((Z)-2-[4-(cyclopropyloxy)phenyl]-1-{[(2-hydroxyethyl)amino]carbonyl}vinyl)benzamide] |  | 35 | 70 | 27.2 | 
